In US11572590B2, “Methods for evaluating tumor cell spheroids using 3D microfluidic cell culture device” (Dana-Farber Cancer Institute, Inc., priority 2017, dated 2023):
Like-named read-outs stand apart in the source and are kept apart here.

How the values were obtained:
Assay in all cases: SelectScreen Kinase Profiling, single point inhibition and IC50 for off-target kinases
Type in all cases: biochemical
off-target kinases [1] = biological target: off-target kinases (Homo sapiens, UniProt P41240); conditions: CSK, ZLYTE, ATP Km app
Protocol: (§1) Biochemical single point inhibition and IC50 concentrations for TBK1, IKKε (IKBKE), and off-target kinases were determined at ThermoFisher Scientific using SelectScreen Kinase Profiling Services (Madison, Wis., USA) (Tables S4A and S4B-1-7). To determine cellular potency, the human colorectal cancer carcinoma cell line HCT116 (ATCC, Manassas, Va.) was maintained in T175 flasks in complete RPMI medium; RPMI 1640 supplemented with 10% FBS, 1× Penicillin-Streptomycin solution and 1×MEM (non-essential amino acids). HCT116 cells were grown to 90-95% confluency in T175 flasks containing complete RPMI medium and transfected in bulk using Lipofectamine 2000 (Invitrogen, Carlsbad, Calif.) with 70 μg of ISG54-luciferase reporter plasmid (Elim Biopharmaceuticals Inc., Hayward, Calif.). The reporter plasmid contains a luciferase gene expression cassette under the transcriptional regulation of the promoter of the human interferon stimulated gene 54 (ISG54). Transfection of the cells was allowed to take place for 6 hours, after which the cells were harvested by treatment with 0.25% trypsin EDTA (Corning Inc., Corning, N.Y.). Trypsinized cells were added to 384-well poly-d-lysine treated black clear bottom tissue culture assay plates (Greiner Bio-One GmbH, Kremsmünster, Austria) at a density of 20,000 cells/well in 80 μL of complete RPMI medium and incubated overnight. After 16-18 hours post-transfection, the assay plates were washed with PBS (Corning Inc., Corning, N.Y.), followed by addition of 80 μL/well of serum-free RPMI 1640 medium containing 1× Penicillin-Streptomycin solution, 1×MEM and 350 nL of DMSO or titrations of Compound 1. Compound 1 titrations were generated by 1.5-fold dilution steps in two overlapping serial dilution series to generate a 40-point compound dose range. After incubation at 37° C. for 1 hour, the cells were stimulated with Poly(I:C) (InvivoGen, San Diego, Calif.) at a final concentration of 15 μg/mL in Optimem media (Life Technologies, Rockville, Md.). The assay plates were incubated for 5 hours at 37° C., followed by addition of One-Glo luciferase firefly reagent (Promega, Madison, Wis.) at 1:1 volume/well and luminescence was measured in an EnVision Multilabel Plate Reader (PerkinElmer, Santa Clara, Calif.). The EC50 values were calculated from the fit of the dose-response curves to a four-parameter equation. All EC50 values represent geometric mean values of a minimum of four determinations.

off-target kinases [2] = biological target: off-target kinases (Homo sapiens, UniProt Q9NYL2); conditions: ZAK, LanthaScreen Binding
Protocol: as §1

off-target kinases [3] = biological target: off-target kinases (Homo sapiens, UniProt Q9UIK4); conditions: DAPK2, LanthaScreen Binding
Protocol: as §1

off-target kinases [4] = biological target: off-target kinases (Homo sapiens, UniProt P51451); conditions: BLK, ATP Km app, ZLYTE
Protocol: as §1

off-target kinases [5] = biological target: off-target kinases (Homo sapiens, UniProt P53779); conditions: MAPK10 (JNK3)
Protocol: as §1

off-target kinases [6] = biological target: off-target kinases (Homo sapiens, UniProt P16234, V561D); conditions: PDGFRA V561D, ATP Km app, ZLYTE
Protocol: as §1

off-target kinases [7] = biological target: off-target kinases (Homo sapiens, UniProt P06213); conditions: INSR, ZLYTE, ATP Km app
Protocol: as §1

off-target kinases [8] = biological target: off-target kinases (Homo sapiens, UniProt P12931); design: other: SRC N1; 1000 μM; ATP Km app; ZLYTE; conditions: SRC N1, ATP Km app, ZLYTE
Protocol: as §1, with “Compound 1 titrations were generated by 1.5-fold dilution steps in two overlapping serial dilution series to generate a 40-point compound dose range. After incubation at 37° C. for 1 hour, the cells were stimulated with Poly(I:C) (InvivoGen, San Diego, Calif.) at a final concentration of 15 μg/mL in Optimem media (Life Technologies, Rockville, Md.).” left out, “All EC50 values represent geometric mean values of a minimum of four determinations.” left out

off-target kinases [9] = biological target: off-target kinases (Homo sapiens, UniProt P00533, DEL746-750); design: other: EGFR (ErbB1) d746-750; mutant y; 1000 μM; conditions: EGFR (ErbB1) d746-750, mutant y, LanthaScreen Binding
Protocol: Biochemical single point inhibition and IC50 concentrations for TBK1, IKKε (IKBKE), and off-target kinases were determined at ThermoFisher Scientific using SelectScreen Kinase Profiling Services (Madison, Wis., USA) (Tables S4A and S4B-1-7). To determine cellular potency, the human colorectal cancer carcinoma cell line HCT116 (ATCC, Manassas, Va.) was maintained in T175 flasks in complete RPMI medium; RPMI 1640 supplemented with 10% FBS, 1× Penicillin-Streptomycin solution and 1×MEM (non-essential amino acids). HCT116 cells were grown to 90-95% confluency in T175 flasks containing complete RPMI medium and transfected in bulk using Lipofectamine 2000 (Invitrogen, Carlsbad, Calif.) with 70 μg of ISG54-luciferase reporter plasmid (Elim Biopharmaceuticals Inc., Hayward, Calif.). The reporter plasmid contains a luciferase gene expression cassette under the transcriptional regulation of the promoter of the human interferon stimulated gene 54 (ISG54). […] The assay plates were incubated for 5 hours at 37° C., followed by addition of One-Glo luciferase firefly reagent (Promega, Madison, Wis.) at 1:1 volume/well and luminescence was measured in an EnVision Multilabel Plate Reader (PerkinElmer, Santa Clara, Calif.). The EC50 values were calculated from the fit of the dose-response curves to a four-parameter equation. […]

Chain of off-target kinases (Homo sapiens, UniProt Q9UIK4) (Q9UIK4 whole entry): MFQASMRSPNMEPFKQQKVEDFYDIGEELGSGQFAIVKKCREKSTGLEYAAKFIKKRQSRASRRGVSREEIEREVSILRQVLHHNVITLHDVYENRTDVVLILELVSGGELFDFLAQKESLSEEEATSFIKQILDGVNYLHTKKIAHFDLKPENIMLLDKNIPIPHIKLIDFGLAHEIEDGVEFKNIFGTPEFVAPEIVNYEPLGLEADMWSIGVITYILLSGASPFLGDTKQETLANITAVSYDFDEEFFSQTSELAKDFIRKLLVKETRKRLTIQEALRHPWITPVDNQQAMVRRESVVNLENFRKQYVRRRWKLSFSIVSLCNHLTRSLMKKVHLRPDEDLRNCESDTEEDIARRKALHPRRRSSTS
Chain of off-target kinases (Homo sapiens, UniProt P53779) (P53779 whole entry): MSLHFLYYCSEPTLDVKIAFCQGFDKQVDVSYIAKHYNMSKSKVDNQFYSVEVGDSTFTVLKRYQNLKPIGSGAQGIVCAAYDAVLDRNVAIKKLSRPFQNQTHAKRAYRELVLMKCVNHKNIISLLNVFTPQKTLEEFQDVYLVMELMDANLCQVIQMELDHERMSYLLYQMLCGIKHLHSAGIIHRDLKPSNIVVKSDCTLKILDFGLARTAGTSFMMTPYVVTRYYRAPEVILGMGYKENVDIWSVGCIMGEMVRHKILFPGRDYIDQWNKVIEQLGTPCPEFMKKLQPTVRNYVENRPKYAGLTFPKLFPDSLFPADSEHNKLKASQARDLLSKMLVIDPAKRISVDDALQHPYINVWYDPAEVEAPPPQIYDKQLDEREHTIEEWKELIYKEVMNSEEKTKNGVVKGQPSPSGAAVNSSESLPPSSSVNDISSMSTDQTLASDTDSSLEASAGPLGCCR
Chain of off-target kinases (Homo sapiens, UniProt P51451) (P51451 whole entry): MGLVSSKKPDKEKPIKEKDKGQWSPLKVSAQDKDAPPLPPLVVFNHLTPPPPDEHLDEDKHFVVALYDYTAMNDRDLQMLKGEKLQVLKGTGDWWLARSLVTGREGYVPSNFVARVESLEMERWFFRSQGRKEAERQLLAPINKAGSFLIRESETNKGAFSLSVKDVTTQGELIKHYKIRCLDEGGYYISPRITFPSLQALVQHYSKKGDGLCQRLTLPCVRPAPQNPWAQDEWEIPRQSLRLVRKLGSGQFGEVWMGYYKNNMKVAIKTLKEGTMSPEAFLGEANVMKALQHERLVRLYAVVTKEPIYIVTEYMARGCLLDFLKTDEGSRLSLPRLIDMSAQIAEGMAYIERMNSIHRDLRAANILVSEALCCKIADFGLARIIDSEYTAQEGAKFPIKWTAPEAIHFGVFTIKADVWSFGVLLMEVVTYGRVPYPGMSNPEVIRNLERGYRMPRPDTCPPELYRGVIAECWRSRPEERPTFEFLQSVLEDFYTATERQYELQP
Chain of off-target kinases (Homo sapiens, UniProt P41240) (P41240 whole entry): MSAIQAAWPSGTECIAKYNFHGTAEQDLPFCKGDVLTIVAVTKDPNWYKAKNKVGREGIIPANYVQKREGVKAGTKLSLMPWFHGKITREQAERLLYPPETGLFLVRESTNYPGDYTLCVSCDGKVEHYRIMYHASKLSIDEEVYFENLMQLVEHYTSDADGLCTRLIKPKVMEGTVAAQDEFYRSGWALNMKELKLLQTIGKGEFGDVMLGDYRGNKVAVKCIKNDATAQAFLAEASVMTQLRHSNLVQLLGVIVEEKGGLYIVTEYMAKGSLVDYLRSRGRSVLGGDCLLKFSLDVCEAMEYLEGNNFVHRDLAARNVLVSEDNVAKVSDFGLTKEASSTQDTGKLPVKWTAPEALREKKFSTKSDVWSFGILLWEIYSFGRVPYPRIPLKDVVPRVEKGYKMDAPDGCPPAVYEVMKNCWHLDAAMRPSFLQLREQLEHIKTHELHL
Chain of off-target kinases (Homo sapiens, UniProt P16234, V561D) (P16234 24-1089 V561D): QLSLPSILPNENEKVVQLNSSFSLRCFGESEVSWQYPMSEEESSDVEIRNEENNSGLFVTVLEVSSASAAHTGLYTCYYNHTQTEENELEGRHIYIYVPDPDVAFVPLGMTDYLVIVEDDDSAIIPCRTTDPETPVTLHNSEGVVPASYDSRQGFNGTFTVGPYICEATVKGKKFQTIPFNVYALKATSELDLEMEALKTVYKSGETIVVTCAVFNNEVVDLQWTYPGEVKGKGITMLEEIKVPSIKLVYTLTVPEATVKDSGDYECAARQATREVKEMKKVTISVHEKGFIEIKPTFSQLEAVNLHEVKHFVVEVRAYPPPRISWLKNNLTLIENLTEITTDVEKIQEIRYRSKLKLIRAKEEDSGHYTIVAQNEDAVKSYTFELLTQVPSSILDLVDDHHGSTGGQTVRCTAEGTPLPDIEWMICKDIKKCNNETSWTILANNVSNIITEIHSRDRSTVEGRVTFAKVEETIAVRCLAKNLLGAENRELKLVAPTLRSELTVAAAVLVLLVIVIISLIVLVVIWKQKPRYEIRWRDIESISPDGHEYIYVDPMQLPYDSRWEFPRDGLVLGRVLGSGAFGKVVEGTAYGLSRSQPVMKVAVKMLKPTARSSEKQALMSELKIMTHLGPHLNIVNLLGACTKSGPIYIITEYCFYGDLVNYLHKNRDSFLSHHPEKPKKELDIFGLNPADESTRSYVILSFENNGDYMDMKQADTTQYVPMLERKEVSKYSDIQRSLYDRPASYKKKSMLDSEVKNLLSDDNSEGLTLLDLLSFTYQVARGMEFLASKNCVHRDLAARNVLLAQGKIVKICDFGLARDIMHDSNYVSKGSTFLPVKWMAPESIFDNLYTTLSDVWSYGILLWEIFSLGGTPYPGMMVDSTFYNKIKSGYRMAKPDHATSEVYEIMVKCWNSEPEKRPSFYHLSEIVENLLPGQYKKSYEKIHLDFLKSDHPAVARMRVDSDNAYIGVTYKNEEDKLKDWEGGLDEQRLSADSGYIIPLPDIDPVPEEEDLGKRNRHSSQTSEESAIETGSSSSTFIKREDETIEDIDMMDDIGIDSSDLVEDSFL
Chain of off-target kinases (Homo sapiens, UniProt P12931) (P12931 1-542 isoform P12931-2): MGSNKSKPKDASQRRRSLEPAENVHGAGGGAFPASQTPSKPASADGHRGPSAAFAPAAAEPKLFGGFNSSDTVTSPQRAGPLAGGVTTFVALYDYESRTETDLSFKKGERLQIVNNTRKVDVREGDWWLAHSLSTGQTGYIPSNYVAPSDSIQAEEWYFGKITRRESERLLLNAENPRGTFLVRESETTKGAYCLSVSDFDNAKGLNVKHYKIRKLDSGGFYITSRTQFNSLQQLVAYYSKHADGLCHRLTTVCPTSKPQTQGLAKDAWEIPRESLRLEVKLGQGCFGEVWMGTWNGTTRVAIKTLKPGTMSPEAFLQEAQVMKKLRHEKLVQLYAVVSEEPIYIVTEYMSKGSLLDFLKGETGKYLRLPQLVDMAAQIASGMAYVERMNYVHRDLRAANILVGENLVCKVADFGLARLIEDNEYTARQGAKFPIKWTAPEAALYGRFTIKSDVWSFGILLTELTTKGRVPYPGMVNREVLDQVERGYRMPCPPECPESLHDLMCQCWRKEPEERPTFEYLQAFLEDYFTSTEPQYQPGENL
Chain of off-target kinases (Homo sapiens, UniProt P06213) (P06213 28-1382): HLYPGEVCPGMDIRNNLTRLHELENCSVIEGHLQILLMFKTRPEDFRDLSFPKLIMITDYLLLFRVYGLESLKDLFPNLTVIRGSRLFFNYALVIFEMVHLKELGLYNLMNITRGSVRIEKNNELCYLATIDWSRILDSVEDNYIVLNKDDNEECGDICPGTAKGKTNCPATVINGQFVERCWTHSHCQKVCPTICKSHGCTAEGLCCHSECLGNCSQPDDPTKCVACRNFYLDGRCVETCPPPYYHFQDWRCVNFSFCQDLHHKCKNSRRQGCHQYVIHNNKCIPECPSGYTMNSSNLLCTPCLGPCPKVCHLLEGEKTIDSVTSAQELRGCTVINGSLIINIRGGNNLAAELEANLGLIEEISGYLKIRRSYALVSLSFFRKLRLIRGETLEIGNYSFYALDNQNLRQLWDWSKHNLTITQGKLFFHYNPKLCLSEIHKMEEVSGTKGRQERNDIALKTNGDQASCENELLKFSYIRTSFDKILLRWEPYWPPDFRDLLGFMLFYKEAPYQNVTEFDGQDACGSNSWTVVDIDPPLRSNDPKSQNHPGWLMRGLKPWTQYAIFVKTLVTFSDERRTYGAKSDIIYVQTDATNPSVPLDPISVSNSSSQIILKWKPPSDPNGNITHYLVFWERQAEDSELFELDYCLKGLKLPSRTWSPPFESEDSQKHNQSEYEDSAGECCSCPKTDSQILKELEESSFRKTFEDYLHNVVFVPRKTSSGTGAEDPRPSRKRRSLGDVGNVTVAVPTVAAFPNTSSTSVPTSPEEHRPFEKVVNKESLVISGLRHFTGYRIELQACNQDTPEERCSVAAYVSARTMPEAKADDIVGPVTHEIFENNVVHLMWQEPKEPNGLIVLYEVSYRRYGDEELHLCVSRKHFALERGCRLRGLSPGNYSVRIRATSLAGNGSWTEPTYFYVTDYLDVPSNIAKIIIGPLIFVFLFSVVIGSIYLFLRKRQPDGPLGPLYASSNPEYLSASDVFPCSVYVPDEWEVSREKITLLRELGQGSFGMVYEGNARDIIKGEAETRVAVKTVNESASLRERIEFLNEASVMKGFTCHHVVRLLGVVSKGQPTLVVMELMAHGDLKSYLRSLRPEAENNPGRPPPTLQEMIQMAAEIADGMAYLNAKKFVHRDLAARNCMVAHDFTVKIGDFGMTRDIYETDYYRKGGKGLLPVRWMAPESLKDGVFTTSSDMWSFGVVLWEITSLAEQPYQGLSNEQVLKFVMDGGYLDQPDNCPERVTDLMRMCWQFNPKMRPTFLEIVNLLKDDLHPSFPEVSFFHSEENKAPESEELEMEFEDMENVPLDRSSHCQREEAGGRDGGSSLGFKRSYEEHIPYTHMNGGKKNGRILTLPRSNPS

Question: N#Cc1cc(-c2ncnc(Nc3ccc(N4CCN(C5COC5)CC4)cc3)n2)ccc1OC1CCOCC1 [Compound 1, 5-(4-((4-(4-(oxetan-3-yl)piperazin-1-yl)phenyl)amino)-1,3,5-triazin-2-yl)-2-((tetrahydro-2H-pyran-4-yl)oxy)benzonitrile] was tested. Which inhibition (off-target kinases [1]; read-out: % Inhibition 1) did it give?
Answer: 13%

Question: And the inhibition (off-target kinases [1]; read-out: % Inhibition 2)?
Answer: 10%

Question: And the inhibition (off-target kinases [1]; read-out: % Inhibition Avg)?
Answer: 12%

Question: And the inhibition (off-target kinases [2]; read-out: % Inhibition 1)?
Answer: 6%

Question: What about the inhibition (off-target kinases [2]; read-out: % Inhibition 2) of the same molecule?
Answer: 10%

Question: What about the inhibition (off-target kinases [2]; read-out: % Inhibition Avg) of the same molecule?
Answer: 8%

Question: What about the inhibition (off-target kinases [3]; read-out: % Inhibition 1) of the same molecule?
Answer: 60%

Question: What about the inhibition (off-target kinases [3]; read-out: % Inhibition 2) of the same molecule?
Answer: 53%

Question: What about the inhibition (off-target kinases [3]; read-out: % Inhibition Avg) of the same molecule?
Answer: 56%

Question: What about the inhibition (off-target kinases [4]; read-out: % Inhibition 1) of the same molecule?
Answer: 41%

Question: What about the inhibition (off-target kinases [4]; read-out: % Inhibition 2) of the same molecule?
Answer: 42%

Question: And the inhibition (off-target kinases [4]; read-out: % Inhibition Avg)?
Answer: 42%

Question: What about the inhibition (off-target kinases [5]; LanthaScreen Binding, read-out: % Inhibition 1) of the same molecule?
Answer: 48%

Question: And the inhibition (off-target kinases [5]; LanthaScreen Binding, read-out: % Inhibition 2)?
Answer: 49%

Question: What about the inhibition (off-target kinases [5]; LanthaScreen Binding, read-out: % Inhibition Avg) of the same molecule?
Answer: 49%

Question: What about the inhibition (off-target kinases [5]; ZLYTE, ATP 100, read-out: % Inhibition 1) of the same molecule?
Answer: 20%

Question: What about the inhibition (off-target kinases [5]; ZLYTE, ATP 100, read-out: % Inhibition 2) of the same molecule?
Answer: 21%

Question: What about the inhibition (off-target kinases [5]; ZLYTE, ATP 100, read-out: % Inhibition Avg) of the same molecule?
Answer: 20%

Question: And the inhibition (off-target kinases [6]; read-out: % Inhibition 1)?
Answer: 85%

Question: And the inhibition (off-target kinases [6]; read-out: % Inhibition 2)?
Answer: 81%

Question: And the inhibition (off-target kinases [6]; read-out: % Inhibition Avg)?
Answer: 83%

Question: What about the inhibition (off-target kinases [7]; read-out: % Inhibition 1) of the same molecule?
Answer: -1%

Question: What about the inhibition (off-target kinases [7]; read-out: % Inhibition 2) of the same molecule?
Answer: 1%

Question: And the inhibition (off-target kinases [7]; read-out: % Inhibition Avg)?
Answer: 0%

Question: What about the inhibition (off-target kinases [8]; read-out: % Inhibition 1) of the same molecule?
Answer: 54%

Question: And the inhibition (off-target kinases [8]; read-out: % Inhibition 2)?
Answer: 60%

Question: What about the inhibition (off-target kinases [8]; read-out: % Inhibition Avg) of the same molecule?
Answer: 57%

Question: What about the inhibition (off-target kinases [9]; read-out: % Inhibition 1) of the same molecule?
Answer: 14%

Question: And the inhibition (off-target kinases [9]; read-out: % Inhibition 2)?
Answer: 13%
